Key:
[1] = system: chick dorsal root ganglion neurons, myelin-induced neurite outgrowth inhibition; experiment: Neurite outgrowth of embryonic day 13 chick DRG neurons on myelin (Example 29); type: cell-based; conditions: 8 μM NgR(310)ecto-Fc; MP 10 μg/nl as printed
Protocol: In investigating combined treatment with methyprednisolone (MP) and NgR(310)ecto-Fc for spinal cord injury (SCI), we sought to verify that these reagents have independent mechanisms of action. Briefly, myelin was dried overnight in poly-L-lysine-precoated plates (Becton Dickinson, Bedford, Mass., USA) at 80 or 400 ng/well (2.5 and 12.7 ng/mm^2, respectively). Wells were then coated with 10 µg/ml laminin (Calbiochem, La Jolla, Calif., USA) for 1 hour at foom temperature (22-24 C). Embryonic day 13 chick dorsal root ganglion neurons were dissociated and plated for 6-8 hours as previously described (GrandPre et al., 2000; Fournier et al., 2001). Neurons were treated with 8 μM NgR(310)ecto-Fc in the presence or absence of 10 μg/nl MP (Pharmacia, Kalamazoo, Mich., USA) for the entire outgrowth period. Neurons were then fixed and stained with βIII tubulin antibody (Covance, Princeton, N.J., USA) and neurite outgrowth was quantified using an automated cellular imaging and analysis system (Axon Instrument, Union City, Calif.; USA). Neurite outgrowth per cell was normalized to the average of duplicate control wells for each experiment (n=3). […] These in vitro data support the hypothesis that MP and NgR(310)ecto-Fc will enhance SCI recovery in a sequentially effective manner.

7E11 [2] = experiment: Epitope mapping: 7E11 binding to protease digest peptides of NgR1; set-up: species or system murine; conditions: trypsin or Asp-N digest, MS analysis
Source text: The 7E11 binding site was further analyzed by testing tryptic peptide digests of sNgR310. […] 7E11 bound only a single tryptic digest peptide, providing additional evidence that 7E11 binds to a single epitope on NgR1. Subsequent mass spectroscopy (MS) and sequence analyses identified the bound peptide to be […] (SEQ ID NO: 26).
The […] peptide (SEQ ID NO: 1) was subjected to further mapping analysis. The peptide was digested with trypsin, which yielded two major fragments, […] (SEQ ID NO: 27) and VVDPTT (SEQ ID NO: 28), and the ability of 7E11 to bind them was tested. […] Within this peptide fraction, detailed MS analysis identified several scrambled peptides that also bound 7E11, including peptides with deamination at Asn115 and Gln117, addition of Alanine at 112 or 113, or addition of Serine at 114 (Table 3).
The […] (SEQ ID NO:1) peptide was also digested with the endoprotease Asp-N and 7E11 binding was tested. Endoprotease Asp-N cleaved the peptide into 3 peptide fragments, L, DLS and […] (SEQ ID NO: 36). Of these products, 7E11 bound the […] (SEQ ID NO:36) peptide. Taken together, the trypsin and Asp-N cleavage data further localize the 7E11 binding epitope to the sequence shared between them, DNAQLR (SEQ ID NO: 37).

7E11 [3] = experiment: 7E11 binding to immobilized point-mutant peptides (MaxiSorp plate, serial dilutions of 7E11); set-up: species or system murine; conditions: 7E11 binding to immobilized peptide
Source text: To verify these contact points, several peptides containing point mutations within the […] sequence (SEQ ID NO: 27) were generated and tested for 7E11 binding. The peptides were immobilized on a MaxiSorp™ plate (Nunc™) and serial dilutions of 7E11 were applied. […] The most significant change in EC50 was observed when Arg 119 was mutated to Alanine.

[4] = system: NogoA, NogoB, NogoC, MAG and OM-gp binding to Nogo receptor-1; experiment: Soluble Nogo receptors block ligand binding to Nogo receptor-1
[5] = target: T1, panel of Nogo receptor-1 polypeptides (sNogoR310-Fc, sNogoR344-Fc, p-617, p-618, p-4, p-5) (Rattus norvegicus, UniProt Q99M75); experiment: Antibody specificity ELISA with a panel of Nogo receptor-1 polypeptides; type: binding
T1 construct: made in house
Source text: To determine the specificity of the monoclonal and Fab-phage antibodies produced in Examples 1 and 2, we performed an ELISA using a panel of Nogo receptor-1 polypeptides. The panel consisted of sNogoR310-Fc (a fusion protein comprising amino acids 26-310 of rat Nogo receptor-1 and a rat Fc fragment), sNogoR344-Fc (see supra), polypeptide p-617 (SEQ ID NO: 1), polypeptide p-618 (a 19-amino acid polypeptide from the LRR7 region of rat Nogo receptor-1; FIG. 2; SEQ ID NO: 11) and polypeptides p-4 and p-5 (polypeptides from the LRR5 and LRRCT regions of Nogo receptor-1, respectively). Ovalbumin and BSA were used as controls.

Nogo66 + sNogoR344-Fc = target: T2, Nogo66 + sNogoR344-Fc (Rattus norvegicus, UniProt Q99M75, A303T/C287S/C43R/E284G/T53A); experiment: ELISA: inhibition of Nogo66 binding to sNogoR344-Fc
T2 construct: amino acid residues 26-344 of rat Nogo receptor-1; made in house
T2 sequence (Q99M75 26-344 C43R/T53A/E284G/C287S/A303T): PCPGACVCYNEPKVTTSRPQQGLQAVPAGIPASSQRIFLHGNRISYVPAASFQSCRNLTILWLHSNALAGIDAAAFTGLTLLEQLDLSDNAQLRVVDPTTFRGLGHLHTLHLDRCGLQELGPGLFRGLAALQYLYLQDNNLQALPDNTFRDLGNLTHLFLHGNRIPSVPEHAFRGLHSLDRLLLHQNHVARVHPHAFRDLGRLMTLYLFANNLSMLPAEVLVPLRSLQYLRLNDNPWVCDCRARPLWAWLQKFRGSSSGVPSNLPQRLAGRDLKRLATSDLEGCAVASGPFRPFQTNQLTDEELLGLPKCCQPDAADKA
Protocol: (§1) 0.5 μg of a soluble Nogo receptor-1 fusion protein comprising amino acid residues 26-344 of rat Nogo receptor-1 and the hinge and Fc region of the rat IgG1 molecule (sNogoR344-Fc) produced as described below was immobilized on […] of protein-A- or wheatgerm agglutinin-conjugated SPA beads (Amersham Pharmacia Biotech) for 2 hours at 25° C. SPA beads coupled with Fc-sNogoR-1, anti-Nogo receptor-1 mAb and 1 μl ^125I-Nogo66 (Amersham, 2000 Ci/mmol, 1 nM) in […] of the HEPES-buffered incubation medium (10 mM HEPES, pH 7.4, 0.1% bovine serum albumin, 0.1% ovalbumin, 2 mM MgCl2, 2 mM CaCl2 and protease inhibitors) was added to each sample well. After 16 hours, radioactivity was measured in quadruplicate samples using a TopCount® (Packard). IC50 values were calculated from a curve-fit analysis (FIG. 3) (PRISM, GraphPad Software, NJ). In some experiments, we also used AP-ligand conjugates (e.g. AP-Nogo66) and detected binding by monitoring alkaline phosphatase activity. We also assayed the ability of the mAbs to block binding of the ligands MAG-Fc and AP-OM-gp to Nogo receptor-1.
(§2) Monoclonal antibodies 7E11, 5B10, 1H2, 3G5 and 2F7 all inhibited binding of Nogo66, MAG and OM-gp to sNogoR344-Fc. The calculated IC50 for Nogo66 for 7E11 and 1H2 were 400 nM and 60 nM, respectively. The data from ELISAs monitoring mAb-mediated inhibition of binding of the three ligands to Nogo receptor-1 are summarized in Table 6.
(§3) The percent displacement is shown at 30 nM antibody and the EC50 for certain mAbs determined from curve-fit analysis as described. “-” indicates no detectable activity and “ND” indicates not determined.
(§4) We also performed ELISA binding assays using the Fab-phage 141)5.

OM-gp + sNogoR344-Fc = target: T3, OM-gp + sNogoR344-Fc (Rattus norvegicus, UniProt Q99M75, A303T/C287S/C43R/E284G/T53A); experiment: ELISA: inhibition of OM-gp binding to sNogoR344-Fc
T3 construct: amino acid residues 26-344 of rat Nogo receptor-1; made in house; CHO (DG44) is described only for sNogoR310-Fc
T3 sequence (Q99M75 26-344 C43R/T53A/E284G/C287S/A303T): T2 sequence (Q99M75 26-344 C43R/T53A/E284G/C287S/A303T)
Protocol: as §1, §2, §3, §4

MAG + sNogoR344-Fc = target: T4, MAG + sNogoR344-Fc (Rattus norvegicus, UniProt Q99M75, A303T/C287S/C43R/E284G/T53A); experiment: ELISA: inhibition of MAG binding to sNogoR344-Fc
T4 construct: amino acid residues 26-344 of rat Nogo receptor-1; made in house; CHO (DG44) is described only for sNogoR310-Fc
T4 sequence (Q99M75 26-344 C43R/T53A/E284G/C287S/A303T): T2 sequence (Q99M75 26-344 C43R/T53A/E284G/C287S/A303T)
Protocol: as §1, §2, §3, §4

[6] = system: DRG neurons, myelin-mediated inhibition of neurite outgrowth; experiment: Neurite outgrowth assay, P3-4 rat DRG neurons, myelin mixed with test protein (Example 10); type: cell-based; conditions: mixed with CNS myelin, FIGS. 9-11
Protocol: Lab-Tek® culture slides (4 wells) were coated with 0.1 mg/ml poly-D-lysine (Sigma®). CNS myelin alone or mixed with sNogoR310, sNogoR310-Fc fusion protein, mAb 5B10 or control PBS were separately spotted as 3 μl drops. Fluorescent microspheres (Polysciences) were added to the myelin/PBS to allow later identification of the drops (Grandpre et al., Nature 403:439-444 (2000)). Lab-Tek® slides were then rinsed and coated with 10 μg/ml laminin (Gibco™).
Dorsal root ganglions (DRG's) from P3-4 Sprague Dawley rat pups were dissociated with 1 mg/ml collagenase type 1 (Worthington), triturated with fire-polished Pasteur pipettes pre-plated to enrich in neuronal cells and finally plated at 23,000 cells/well on the pre-coated Labtek culture slides. The culture medium was F12 containing 5% heat inactivated donor horse serum, 5% heat inactivated fetal bovine serum and 50 ng/ml mNGF and incubated at 37° C. and 5% CO2 for 6 hours.
Slides were fixed for 20 minutes with 4% paraformaldehyde containing 20% sucrose and stained for the neuronal marker anti beta-III-tubulin (Covance TUJ1) diluted 1:500. As secondary antibody anti-mouse Alexa Fluor® 594 (Molecular Probes) was diluted 1:300 and slides were coverslipped with Gel/Mount™ (Biømeda™). 5× digital images were acquired with OpenLab™ software and analyzed by using the MetaMorph® software for quantification of neurite outgrowth.

## C[C@H]1C[C@@H]2[C@H]([C@@H](O)C[C@@]3(C)[C@H]2CC[C@]3(O)C(=O)CO)[C@@]2(C)C=CC(=O)C=C12 [MP, methylprednisolone, reference compound]
[1]
  effect on neurite outgrowth on a myelin substrate: no effect

## AAAFTGLTLLEQLDLSDNAQLR (Rattus) [tryptic digest peptide of sNgR310]
7E11 [2]
  peptide bound by 7E11: bound

## DNAQLRVVDPTT (sequence also found in Rattus; listed as Homo Sapiens)
7E11 [2]
  peptide bound by 7E11: bound

## LDLSDNAALRVVDPTT [Q117A]
7E11 [3]
  increase of EC50 relative to the original peptide: 30 fold

## LDLSDNAQLHVVDPTT [R119H]
7E11 [3]
  increase of EC50 relative to the original peptide: 25 fold

## LDLSDNAQLR (sequence also found in Rattus; listed as Homo Sapiens)
7E11 [2]
  peptide bound by 7E11: bound

B1: sNogoR344: soluble Nogo receptor-1 polypeptide, residues 26-344 of SEQ ID NOs: 6 and 8 or 27-344 of SEQ ID NO: 8 (protein, listed as Homo sapiens)
chain: PCPGACVCYNEPKVTTSCPQQGLQAVPVGIPAASQRIFLHGNRISHVPAASFRACRNLTILWLHSNVLARIDAAAFTGLALLEQLDLSDNAQLRSVDPATFHGLGRLHTLHLDRCGLQELGPGLFRGLAALQYLYLQDNALQALPDDTFRDLGNLTHLFLHGNRISSVPERAFRGLHSLDRLLLHQNRVAHVHPHAFRDLGRLMTLYLFANNLSALPTEALAPLRALQYLRLNDNPWVCDCRARPLWAWLQKFRGSSSEVPCSLPQRLAGRDLKRLAANDLQGCAVATGPYHPIWTGRATDEEPLGLPKCCQPDAADKA
[4]
  block of binding of NogoA, NogoB, NogoC, MAG and OM-gp to Nogo receptor-1: block

B2: 5B10: murine monoclonal anti-Nogo receptor-1 antibody, immunogen rat Nogo receptor-1 residues 110-125, ATCC PTA-4588 (antibody, V domains shown)
VH: LQXSGAEIVMPGTAVTMSCKASGYTFTDFWMHWVKQRPGQGLEWIGAIDPSDSYSRINQKFKGKATLTVDESSSTAYMQLSSLTSEDSAVYYCARRITEAGAWFAYWGQGTTVT
VL: MKLPVRLLVLMFWIPASSSDVVMTQTPLSLPVSLGDQASISCRSSQSLVHSNGYTYLHWYLQRPGQSPKLLIYKVSNRFSGVPDRFSGSGSGTDFTLKISRVDAEDLGVYFCSQSTHVPYTFGGGTKLEIKRADAAPTVSISHH
modifications: not fully specified; 5B10 heavy chain; 5B10 light chain
[5]
  binding to polypeptide p-617 (SEQ ID NO: 1): specifically bound
Nogo66 + sNogoR344-Fc
  inhibition of binding of Nogo66 to sNogoR344-Fc: inhibited
OM-gp + sNogoR344-Fc
  inhibition of binding of OM-gp to sNogoR344-Fc: inhibited
MAG + sNogoR344-Fc
  inhibition of binding of MAG to sNogoR344-Fc: inhibited
[6]
  protection of DRG neurons from myelin-mediated inhibition of neurite outgrowth: protected

Source: patent US9228015B2, “Nogo receptor antagonists and methods of increasing neurite outgrowth” (Biogen Idec MA Inc., priority 2006, dated 2016)
